Measured values reported in US6525001B1, “Substituted pyrimidine and pyridine herbicides” (Mid-American Commercialization Corporation, priority 1997, dated 2003).

What was measured:
Assay type in all cases: in vivo
[1] = tested on: sandbur (Cenchrus echinatus); test: Test E pre-/postemergence/post directed
Method in brief: (§1)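 Three application modes in greenhouse pots: preemergence soil spray, postemergence foliar spray at two to four leaves, and post-directed spray to soil and plant base. Ratings of 0–100 injury, assigned visually against untreated controls 13 to 21 days later.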

[2] = tested on: Spanishneedles (Bidens bipinnata); test: Test E pre-/postemergence/post directed
Method in brief: as §1

[3] = tested on: large crabgrass (Digitaria sanguinalis); test: Test E pre-/postemergence/post directed
Method in brief: as §1

[4] = tested on: itchgrass (Rottboellia exaltata); test: Test E pre-/postemergence/post directed
Method in brief: as §1

[5] = tested on: common ragweed (Ambrosia elatior); test: Test E pre-/postemergence/post directed
Method in brief: as §1

[6] = tested on: pitted morningglory (Ipomoea lacunosa); test: Test E pre-/postemergence/post directed
Method in brief: as §1

[7] = tested on: bermudagrass (Cynodon dactylon); test: Test E pre-/postemergence/post directed
Method in brief: as §1

[8] = tested on: johnson grass (Sorghum halepense); test: Test E pre-/postemergence/post directed
Method in brief: as §1

[9] = tested on: common purslane (Portulaca oleracea); test: Test E pre-/postemergence/post directed; design: key: 0 is no effect; 100 is complete control
Method in brief: as §1

[10] = tested on: guineagrass (Panicum maximum); test: Test E pre-/postemergence/post directed; design: key: 0 is no effect; 100 is complete control
Method in brief: as §1

[11] = tested on: tall mallow (Malva sylvestris); test: Test E pre-/postemergence/post directed; design: key: 0 is no effect; 100 is complete control; details: PREEMERGENCE
Method in brief: as §1

[12] = tested on: large crabgrass (Digitaria sanguinalis); test: Test E pre-/postemergence/post directed; design: key: 0 is no effect; 100 is complete control; details: PREEMERGENCE
Method in brief: as §1

[13] = tested on: common ragweed (Ambrosia elatior); test: Test E pre-/postemergence/post directed; design: key: 0 is no effect; 100 is complete control; details: PREEMERGENCE, Rate 125 g/ha
Method in brief: as §1

[14] = tested on: common groundsel (Senecio vulgaris); test: Test E pre-/postemergence/post directed; design: key: 0 is no effect; 100 is complete control
Method in brief: as §1

[15] = tested on: dallisgrass (Paspalum dilatatum); test: Test E pre-/postemergence/post directed; design: key: 0 is no effect; 100 is complete control
Method in brief: as §1

[16] = tested on: bermudagrass (Cynodon dactylon); test: Test E pre-/postemergence/post directed; design: key: 0 is no effect; 100 is complete control; details: PREEMERGENCE, Rate 125 g/ha
Method in brief: as §1

[17] = tested on: sourgrass (Trichachne insularis); test: Test E pre-/postemergence/post directed; design: key: 0 is no effect; 100 is complete control
Method in brief: as §1

[18] = tested on: barnyardgrass (Echinochloa crus-galli); test: Test C; details: PREEMERGENCE
[19] = tested on: cotton (Gossypium hirsutum); test: Test C; design: key: 0 was no effect; 100 was complete control; details: PREEMERGENCE

## Cc1cnc(-n2ccc(C(F)(F)F)n2)nc1Cn1ccc(C(F)(F)F)n1 [Compound 52]
[1]; POSTEMERGENCE, Rate 125 g/ha
  Plant response rating, Sandbur: 5
[1]; POSTEMERGENCE, Rate 250 g/ha
  Plant response rating, Sandbur: 60
[1]; PREEMERGENCE, Rate 64 g/ha
  Plant response rating, Sandbur: 10
[1]; PREEMERGENCE, Rate 125 g/ha
  Plant response rating, Sandbur: 50
[2]; POSTEMERGENCE, Rate 125 g/ha
  Plant response rating, Spanishneedles: 65
[2]; POSTEMERGENCE, Rate 250 g/ha
  Plant response rating, Spanishneedles: 60
[2]; PREEMERGENCE, Rate 32 g/ha
  Plant response rating, Spanishneedles: 20
[2]; PREEMERGENCE, Rate 64 g/ha
  Plant response rating, Spanishneedles: 20
[2]; PREEMERGENCE, Rate 125 g/ha
  Plant response rating, Spanishneedles: 35
[3]; POSTEMERGENCE, Rate 125 g/ha
  Plant response rating, Large crabgrass: 5
[3]; POSTEMERGENCE, Rate 250 g/ha
  Plant response rating, Large crabgrass: 80
[3]; PREEMERGENCE, Rate 32 g/ha
  Plant response rating, Large crabgrass: 98
[4]; POSTEMERGENCE, Rate 125 g/ha
  Plant response rating, Itchgrass: 35
[4]; POSTEMERGENCE, Rate 250 g/ha
  Plant response rating, Itchgrass: 40
[4]; PREEMERGENCE, Rate 32 g/ha
  Plant response rating, Itchgrass: 35
[4]; PREEMERGENCE, Rate 64 g/ha
  Plant response rating, Itchgrass: 70
[4]; PREEMERGENCE, Rate 125 g/ha
  Plant response rating, Itchgrass: 80
[5]; POSTEMERGENCE, Rate 125 g/ha
  Plant response rating, Com. ragweed: 50
[5]; POSTEMERGENCE, Rate 250 g/ha
  Plant response rating, Com. ragweed: 80
[5]; PREEMERGENCE, Rate 32 g/ha
  Plant response rating, Com. ragweed: 35
[5]; PREEMERGENCE, Rate 64 g/ha
  Plant response rating, Com. ragweed: 80
[6]; POSTEMERGENCE, Rate 125 g/ha
  Plant response rating, P. morninglory: 80
[6]; POSTEMERGENCE, Rate 250 g/ha
  Plant response rating, P. morninglory: 80
[6]; PREEMERGENCE, Rate 32 g/ha
  Plant response rating, P. morninglory: 50
[7]; POSTEMERGENCE, Rate 125 g/ha
  Plant response rating, Bermudagrass: 35
[7]; POSTEMERGENCE, Rate 250 g/ha
  Plant response rating, Bermudagrass: 35
[7]; PREEMERGENCE, Rate 32 g/ha
  Plant response rating, Bermudagrass: 70
[7]; PREEMERGENCE, Rate 64 g/ha
  Plant response rating, Bermudagrass: 90
[8]; POSTEMERGENCE, Rate 125 g/ha
  Plant response rating, Johnsongrass: 35
[8]; POSTEMERGENCE, Rate 250 g/ha
  Plant response rating, Johnsongrass: 20
[8]; PREEMERGENCE, Rate 64 g/ha
  Plant response rating, Johnsongrass: 50
[8]; PREEMERGENCE, Rate 125 g/ha
  Plant response rating, Johnsongrass: 75
[9]; POSTEMERGENCE, Rate 125 g/ha
  Plant response rating, Com. purslane: 50
[9]; POSTEMERGENCE, Rate 250 g/ha
  Plant response rating, Com. purslane: 75
[9]; PREEMERGENCE, Rate 32 g/ha
  Plant response rating, Com. purslane: 100
[9]; PREEMERGENCE, Rate 64 g/ha
  Plant response rating, Com. purslane: 100
[9]; PREEMERGENCE, Rate 125 g/ha
  Plant response rating, Com. purslane: 100
[10]; POSTEMERGENCE, Rate 125 g/ha
  Plant response rating, Guineagrass: 80
[10]; POSTEMERGENCE, Rate 250 g/ha
  Plant response rating, Guineagrass: 85
[10]; PREEMERGENCE, Rate 32 g/ha
  Plant response rating, Guineagrass: 60
[10]; PREEMERGENCE, Rate 64 g/ha
  Plant response rating, Guineagrass: 80
[10]; PREEMERGENCE, Rate 125 g/ha
  Plant response rating, Guineagrass: 100
[11]; Rate 32 g/ha
  Plant response rating, Tall Mallow: 60
[11]; Rate 64 g/ha
  Plant response rating, Tall Mallow: 98
[11]; Rate 125 g/ha
  Plant response rating, Tall Mallow: 100
[12]; Rate 64 g/ha
  Plant response rating, Large crabgrass: 100
[12]; Rate 125 g/ha
  Plant response rating, Large crabgrass: 100
[13]
  Plant response rating, Com. ragweed: 100
[14]; POSTEMERGENCE, Rate 125 g/ha
  Plant response rating, Com. groundsel: 100
[14]; POSTEMERGENCE, Rate 250 g/ha
  Plant response rating, Com. groundsel: 100
[14]; PREEMERGENCE, Rate 125 g/ha
  Plant response rating, Com. groundsel: 100
[15]; POSTEMERGENCE, Rate 125 g/ha
  Plant response rating, Dallisgrass: 5
[15]; POSTEMERGENCE, Rate 250 g/ha
  Plant response rating, Dallisgrass: 75
[15]; PREEMERGENCE, Rate 32 g/ha
  Plant response rating, Dallisgrass: 35
[15]; PREEMERGENCE, Rate 64 g/ha
  Plant response rating, Dallisgrass: 80
[15]; PREEMERGENCE, Rate 125 g/ha
  Plant response rating, Dallisgrass: 90
[16]
  Plant response rating, Bermudagrass: 100
[17]; POSTEMERGENCE, Rate 125 g/ha
  Plant response rating, Sourgrass: 10
[17]; POSTEMERGENCE, Rate 250 g/ha
  Plant response rating, Sourgrass: 50
[17]; PREEMERGENCE, Rate 32 g/ha
  Plant response rating, Sourgrass: 95
[17]; PREEMERGENCE, Rate 64 g/ha
  Plant response rating, Sourgrass: 100
[17]; PREEMERGENCE, Rate 125 g/ha
  Plant response rating, Sourgrass: 100
[18]; Rate 35 g/ha
  Plant response rating, Barnyardgrass: 30
[18]; Rate 70 g/ha
  Plant response rating, Barnyardgrass: 40
[18]; Rate 140 g/ha
  Plant response rating, Barnyardgrass: 40
[19]; Rate 35 g/ha
  Plant response rating, Cotton: 0
[19]; Rate 70 g/ha
  Plant response rating, Cotton: 0
[19]; Rate 140 g/ha
  Plant response rating, Cotton: 70
